Source: PubChem BioAssay AID1963848 (Molecular Pharmacology Branch, DTP, NCI, 2024)
Values joined by “and” are separate entries in the source; they are usually repeats but may differ in a detail not shown here. Equal entries are not always repeated.

System: 379773-124-R-J2-PDC spheroid viability
Assay: Anticancer human tumor 379773-124-R-J2-PDC patient-derived endometrial carcinoma cell line growth inhibition [POLQ]
Settings: spheroids with HUVEC and MSC; for viability, T/C: stronger effect = lower value
Method: Multicellular complex tumor spheroid response to Polymerase (POL) inhibitors (novobiocin, ART-558, RP6685) in combination with a variety of drugs and investigational agents in selected tumor cell lines
The POL inhibitors (novobiocin, ART-558, and RP6685) were evaluated both individually and in combination with standard of care and investigational anticancer small molecules within a complex spheroid model of solid tumors. . Complex spheroids include a stromal component modeled by human endothelial cells (HUVEC) and fibroblasts modeled by human mesenchymal stem cells (MSCs). The concentration ranges selected for each drug and investigational agent were based upon clinically achievable concentrations if the clinical Cmax of the agent was known.
Compounds. The drugs and investigational agents: novobiocin (NSC847541), ART-558 (NSC835418), RP-6685 (NSC848927), peposertib (NSC802822), ceralasertib (NSC780249), elimusertib (NSC800525), camonsertib (NSC841442), AZD-1390 (NSC803789), olaparib (NSC753686), talazoparib (NSC767125), rucaparib (NSC756644), sotorasib (NSC818433), MRTX-1133 (NSC836407), SN-38 (NSC673596), topotecan (NSC609699), epotoside (NSC141540), doxorubicin (NSC123127), gemcitabine (NSC613327), 5-fluorouracil (NSC19893), paclitaxel (NSC125973), vemurafenib (NSC761431), MSA-2 (NSC828583), SN-011 (NSC837082), adavosertib (NSC754352), prexasertib (NSC758257), carboplatin (NSC241240) and oxaliplatin (NSC266046), were obtained from the National Cancer Institute (NCI) Developmental Therapeutics Program Chemical Repository (21). The FDA-approved anticancer drug set is available from the Developmental Therapeutics Program at https://dtp.cancer.gov/organization/dscb/obtaining/. […] The stock solutions were prepared in dimethyl sulfoxide (DMSO, Sigma-Aldrich, St. Louis, MO, cat. D2650), except for the platinum compounds which were prepared in saline (Quality Biological, Gaithersburg, MD, cat. 114-055-101), at 800-fold the tested concentration and stored at -70 degrees C prior to their use. All drugs and investigational agents were tested over a range starting from a high concentration at or near the clinical Cmax and decreasing in half-log increments. If the clinical Cmax for an agent had not been determined, the highest concentration tested was 10 microM, except for SN-38, which was tested at a high concentration of 1 microM.
Cell Culture. All cells were maintained in an incubator at 37 degrees C and 5% CO2 with 95% humidity. The PDC lines were cultured according to standard operating procedures established by the NCI PDMR (https://pdmr.cancer.gov). Table 3 of the manuscript, lists the cell lines along with the number of the three cell types plated to form the mct-spheroids and media for tumor cell growth. After thawing, all PDC lines, except 997537-175-T-J1-PDC and 415267-285-R-J2-PDC, were cultured in Matrigel-coated flasks prepared with a working solution of 1X Ham's F-12 nutrient mix, without supplementation (Thermo Fisher Scientific, cat. 11765054), 100 U/mL penicillin-streptomycin (Thermo Fisher Scientific, cat. 15140122), and 2.5% Matrigel (Corning Inc., Corning, NY, cat. 354248) for the first three passages. The two PDC lines 997537-175-T-J1-PDC and 415267-285-R-J2-PDC were cultured on uncoated flasks. The 857933-349-R-J2-PDC line was cultured in 6C/Colon 1B media containing advanced DMEM/F-12 (Thermo Fisher Scientific, cat. 12634028), 10 mM HEPES (Thermo Fisher Scientific, cat. 15630080), 1X GlutaMAX supplement (Thermo Fisher Scientific, cat. 35050061), 0.1 mg/mL primocin (InvivoGen, San Diego, CA, cat. ant-pm-2), 10% defined fetal bovine serum, heat inactivated (HyClone Laboratories Inc., Logan, UT, cat. SH30070.03HI), 50% L-WRN conditioned media (ATCC, cat. CRL-3276), 1.25 mM N-Acetyl-L-cysteine (Sigma-Aldrich, cat. A9165), 10 mM nicotinamide (Sigma-Aldrich, cat. N0636), 1X B-27 supplement (Thermo Fisher Scientific, cat. 17504044), 1X N-2 supplement (Thermo Fisher Scientific, cat. […]

[1] = curve of first compound, second compound 0.0316 µM
[2] = curve of first compound, second compound 0.1 µM
[3] = curve of first compound, second compound 0.316 µM
[4] = curve of first compound, second compound 1 µM
[5] = curve of first compound, second compound 3.16 µM
[6] = curve of first compound, second compound 10 µM
[7] = second compound 0.0316 µM, first compound 0.0316 µM
[8] = second compound 0.0316 µM, first compound 0.1 µM
[9] = second compound 0.0316 µM, first compound 0.316 µM
[10] = second compound 0.0316 µM, first compound 1 µM
[11] = second compound 0.0316 µM, first compound 3.16 µM
[12] = second compound 0.0316 µM, first compound 10 µM
[13] = second compound 0.1 µM, first compound 0.0316 µM
[14] = second compound 0.1 µM, first compound 0.1 µM
[15] = second compound 0.1 µM, first compound 0.316 µM
[16] = second compound 0.1 µM, first compound 1 µM
[17] = second compound 0.1 µM, first compound 3.16 µM
[18] = second compound 0.1 µM, first compound 10 µM
[19] = second compound 0.316 µM, first compound 0.0316 µM
[20] = second compound 0.316 µM, first compound 0.1 µM
[21] = second compound 0.316 µM, first compound 0.316 µM
[22] = second compound 0.316 µM, first compound 1 µM
[23] = second compound 0.316 µM, first compound 3.16 µM
[24] = second compound 0.316 µM, first compound 10 µM
[25] = second compound 1 µM, first compound 0.0316 µM
[26] = second compound 1 µM, first compound 0.1 µM
[27] = second compound 1 µM, first compound 0.316 µM
[28] = second compound 1 µM, first compound 1 µM
[29] = second compound 1 µM, first compound 3.16 µM
[30] = second compound 1 µM, first compound 10 µM
[31] = second compound 3.16 µM, first compound 0.0316 µM
[32] = second compound 3.16 µM, first compound 0.1 µM
[33] = second compound 3.16 µM, first compound 0.316 µM
[34] = second compound 3.16 µM, first compound 1 µM
[35] = second compound 3.16 µM, first compound 3.16 µM
[36] = second compound 3.16 µM, first compound 10 µM
[37] = second compound 10 µM, first compound 0.0316 µM
[38] = second compound 10 µM, first compound 0.1 µM
[39] = second compound 10 µM, first compound 0.316 µM
[40] = second compound 10 µM, first compound 1 µM
[41] = second compound 10 µM, first compound 3.16 µM
[42] = second compound 10 µM, first compound 10 µM
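Further: spheroids exposed to drugs for seven days before readout.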
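Wherever viability, T/C is given: percent viability relative to DMSO vehicle control taken as 100%.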

## O=C(c1cc(Cc2n[nH]c(=O)c3ccccc23)ccc1F)N1CCN(C(=O)C2CC2)CC1 + COC1C(OC(N)=O)C(O)C(Oc2ccc3c(O)c(NC(=O)c4ccc(O)c(CC=C(C)C)c4)c(=O)oc3c2C)OC1(C)C
[1]
  IC50: 6.65 µM
[2]
  IC50: 9.68 µM
[3]
  IC50: 8.28 µM
[4]
  IC50: 7.63 µM
[5]
  IC50: 9.21 µM
[6]
  IC50: 9.44 µM
[7]
  viability, T/C: 87.3%
[8]
  viability, T/C: 80.7%
[9]
  viability, T/C: 88.5%
[10]
  viability, T/C: 82.4%
[11]
  viability, T/C: 71.2%
[12]
  viability, T/C: 38.2%
[13]
  viability, T/C: 92.5%
[14]
  viability, T/C: 76.6%
[15]
  viability, T/C: 86.9%
[16]
  viability, T/C: 81.4%
[17]
  viability, T/C: 88.1%
[18]
  viability, T/C: 48.9%
[19]
  viability, T/C: 82.4%
[20]
  viability, T/C: 91.8%
[21]
  viability, T/C: 88.1%
[22]
  viability, T/C: 85.8%
[23]
  viability, T/C: 74.8%
[24]
  viability, T/C: 44.7%
[25]
  viability, T/C: 85.1%
[26]
  viability, T/C: 80%
[27]
  viability, T/C: 78.3%
[28]
  viability, T/C: 84.4%
[29]
  viability, T/C: 72.2%
[30]
  viability, T/C: 42.8%
[31]
  viability, T/C: 80.2%
[32]
  viability, T/C: 82.8%
[33]
  viability, T/C: 76.5%
[34]
  viability, T/C: 73.2%
[35]
  viability, T/C: 73.3%
[36]
  viability, T/C: 48%
[37]
  viability, T/C: 70.5%
[38]
  viability, T/C: 78.8%
[39]
  viability, T/C: 74.1%
[40]
  viability, T/C: 72.7%
[41]
  viability, T/C: 73.5%
[42]
  viability, T/C: 48.8%

## CCc1cc2c(N3CCc4c(cc(Cn5ccnc5)cc4-c4cn(C)nc4C(F)(F)F)C3=O)cc(C)nc2c(OC)n1
Compound 0.0316 µM
  viability, T/C: 70.7% and 94% and 69.3%
Compound 0.1 µM
  viability, T/C: 73.2% and 69.1% and 70.4%
Compound 0.316 µM
  viability, T/C: 54.8% and 60.2% and 68.2%
Compound 1 µM
  viability, T/C: 55.9% and 57.2% and 61.2%
Compound 3.16 µM
  viability, T/C: 41.9% and 60.5% and 56.2%
Compound 10 µM
  viability, T/C: 40% and 47.3% and 48.9%
Curve of compound
  IC50: 1.26 µM and > 10 µM and 8.12 µM

## CNCc1ccc(-c2[nH]c3cc(F)cc4c3c2CCNC4=O)cc1 + Cc1cccc(N(C)C(=O)C2C(O)CCN2c2nc(C)cc(C(F)(F)F)c2C#N)c1
[1]
  IC50: > 10 µM
[2]
  IC50: > 10 µM
[3]
  IC50: > 10 µM
[4]
  IC50: > 10 µM
[5]
  IC50: > 10 µM
[6]
  IC50: > 10 µM
[7]
  viability, T/C: 89.5%
[8]
  viability, T/C: 74.2%
[9]
  viability, T/C: 88.5%
[10]
  viability, T/C: 83.2%
[11]
  viability, T/C: 72.7%
[12]
  viability, T/C: 58.3%
[13]
  viability, T/C: 90.4%
[14]
  viability, T/C: 85.8%
[15]
  viability, T/C: 75.2%
[16]
  viability, T/C: 79.5%
[17]
  viability, T/C: 80.4%
[18]
  viability, T/C: 66.9%
[19]
  viability, T/C: 93.3%
[20]
  viability, T/C: 77.5%
[21]
  viability, T/C: 83.1%
[22]
  viability, T/C: 82.9%
[23]
  viability, T/C: 75.8%
[24]
  viability, T/C: 57.6%
[25]
  viability, T/C: 78.2%
[26]
  viability, T/C: 79.7%
[27]
  viability, T/C: 87.1%
[28]
  viability, T/C: 73.5%
[29]
  viability, T/C: 73.8%
[30]
  viability, T/C: 60.3%
[31]
  viability, T/C: 86.5%
[32]
  viability, T/C: 73.6%
[33]
  viability, T/C: 79.8%
[34]
  viability, T/C: 83.1%
[35]
  viability, T/C: 82%
[36]
  viability, T/C: 54.8%
[37]
  viability, T/C: 74.8%
[38]
  viability, T/C: 70.3%
[39]
  viability, T/C: 72.7%
[40]
  viability, T/C: 69.6%
[41]
  viability, T/C: 77.3%
[42]
  viability, T/C: 61.1%

## Cc1cccc(N(C)C(=O)C2C(O)CCN2c2nc(C)cc(C(F)(F)F)c2C#N)c1 (stereo not drawn)
Compound 0.0316 µM
  viability, T/C: 89.8% [middle of 13 runs]
Compound 0.1 µM
  viability, T/C: 90.7% [middle of 13 runs]
Compound 0.316 µM
  viability, T/C: 88.2% [middle of 13 runs]
Compound 1 µM
  viability, T/C: 88.2% [middle of 13 runs]
Compound 3.16 µM
  viability, T/C: 89% [middle of 13 runs]
Compound 10 µM
  viability, T/C: 92.7% [middle of 13 runs]
Compound alone, run of 10/31/2023
  IC50: > 10 µM
Compound alone, run of 11/06/2023
  IC50: > 10 µM

## COc1cc(C2c3cc4c(cc3C(OC3OC5COC(C)OC5C(O)C3O)C3COC(=O)C23)OCO4)cc(OC)c1O (stereo not drawn)
Compound 0.0316 µM
  viability, T/C: 84.9% and 99% and 87%
Compound 0.1 µM
  viability, T/C: 86.8% and 96.4% and 75.6%
Compound 0.316 µM
  viability, T/C: 89.5% and 90% and 75.2%
Compound 1 µM
  viability, T/C: 64.8% and 72.1% and 65%
Compound 3.16 µM
  viability, T/C: 14.7% and 19.1% and 14.3%
Compound 10 µM
  viability, T/C: 10.1% (2×) and 14.7%
Curve of compound
  IC50: 1.4 µM and 1.62 µM

## O=C(Nc1ccc(O)c(NS(=O)(=O)c2ccc(F)cc2)c1)c1ccc(-c2ccccc2)cc1
Compound 0.0316 µM
  viability, T/C: 98.6% and 86.4% and 88.8%
Compound 0.1 µM
  viability, T/C: 96% and 86.4% and 90.7%
Compound 0.316 µM
  viability, T/C: 97.9% and 93.9% and 76.7%
Compound 1 µM
  viability, T/C: 105% and 82.9% and 109%
Compound 3.16 µM
  viability, T/C: 91.6% and 97.1% and 84.3%
Compound 10 µM
  viability, T/C: 77.9% and 78.2% and 65.2%
Curve of compound
  IC50: > 10 µM
